Patent US20100323456A1 (priority 2006, published 2010)
Several values for one entry are separate records, joined by “and”; a condition that tells them apart may be missing. Equal values may be shown once. Entries after “also recorded” stand apart in the source; their conditions may differ. Read-outs that look alike come from different tables or passages of the source. Non-standard residues stand in square brackets, D forms with d. Residues, ends and D or L forms follow the SMILES beside them.

Columns and labels:
[1] = tested on: G-proteins coupled to opioid and ET receptors; experiment: [35S]GTPγS binding assay (G-protein stimulation) in neuronal membranes of neonatal rat brain, placebo and morphine withdrawal groups; format: biochemical; settings: for Effect on [35S]GTPγS binding: brain of neonatal rats; for Effect on GTP binding: morphine withdrawal group compared to placebo; for Maximal stimulation of [35S]GTPγS binding / EC50: neonatal rat brain; for Maximal stimulation of [35S]GTPγS binding: 0.98 to 1000 nM; for EC50: read-out: EC50 for stimulated [35S]GTPγS binding
ET receptors = settings: co-administration with morphine; cited from earlier work
central ET receptors = settings: intracerebroventricular administration; cited from earlier work

Compound | Effect on [35S]GTPγS binding [1] | Effect on GTP binding [1] | Maximal stimulation of [35S]GTPγS binding ([1]; morphine withdrawal group) | EC50 ([1]; morphine withdrawal group) | Effect on G-protein stimulation / GTP binding ([1]; placebo (normal) group) | Maximal stimulation of [35S]GTPγS binding ([1]; placebo group) | EC50 ([1]; placebo group) [nM] | Effect on morphine-induced analgesia and hyperthermia (ET receptors) | Effect on mean arterial blood pressure (BP) (central ET receptors)
Cc1noc(NS(=O)(=O)c2cccc3c(N(C)C)cccc23)c1C [BMS182874] | concentration-dependent increase | significantly increased GTP binding | 86.07% | 31.2 nM and 33.2 nM | did not affect GTP binding; also recorded: did not stimulate G-proteins | 6.71±1.51% | > 1000 | – | –
CC(C)C[C@@H]1NC(=O)[C@@H](C(C)C)NC(=O)[C@@H]2CCCN2C(=O)[C@@H](CC(=O)O)NC(=O)[C@@H](Cc2c[nH]c3ccccc23)NC1=O [BQ123] (cyclo(L[dW][dD]P[dV])) | – | – | – | – | – | – | – | potentiate morphine-induced analgesia and hyperthermia without affecting catalepsy | –
CC[C@H](C)[C@H](NC(=O)[C@H](CC(=O)O)NC(=O)[C@H](CC(C)C)NC(=O)[C@H](Cc1c[nH]cn1)NC(=O)[C@@H]1CSSC[C@H](N)C(=O)N[C@@H](CO)C(=O)N[C@H]2CSSC[C@H](NC(=O)[C@H](CCC(=O)O)NC(=O)[C@H](CCCCN)NC(=O)[C@H](CC(=O)O)NC(=O)[C@H](CCSC)NC(=O)[C@H](CC(C)C)NC(=O)[C@H](CO)NC(=O)[C@H](CO)NC2=O)C(=O)N[C@@H](C(C)C)C(=O)N[C@@H](Cc2ccc(O)cc2)C(=O)N[C@@H](Cc2ccccc2)C(=O)N1)C(=O)N[C@H](C(=O)N[C@@H](Cc1c[nH]c2ccccc12)C(=O)O)[C@@H](C)CC [ET-1] | concentration-dependent increase | lower; also recorded: attenuated | 87.16±4.83% | 171 nM | – | 74.88±1.50% | 20.66 ± 0.12 | – | transient rise followed by sustained fall
CN1CC[C@]23c4c5ccc(O)c4O[C@H]2[C@@H](O)C=C[C@H]3[C@H]1C5 [Morphine] | concentration-dependent increase | higher | 83.60% and 83.60±5.77% | – | – | 66.81% and 66.31±1.51% | – | – | –
